Laboratory results reported in ChEMBL document CHEMBL1201862, “PubChem BioAssay data set” (2004).
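Cells were grown in 96-well plates and exposed to each compound for 48 hours at five concentrations; endpoints were interpolated linearly between bracketing concentrations, or set to the highest concentration if not reached. The concentration for 50% growth inhibition is given as GI50.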 The source made the active and inactive calls. Rule as the data show it: active = GI50 up to about 1.1 µM and inactive = higher.

Legend:
Experiment in all cases: NCI anticancer screen, dose series, 48 h
SW-620 = tested on: SW-620
PC-3 = tested on: PC-3
Hs-578T = tested on: Hs-578T
SK-MEL-5 = tested on: SK-MEL-5
U-251 = tested on: U-251
M14 = tested on: M14
K562 = tested on: K562
SF-539 = tested on: SF-539
UACC-257 = tested on: UACC-257
NCI/ADR-RES = tested on: NCI/ADR-RES
NCI-H460 = tested on: NCI-H460
TK-10 = tested on: TK-10
SN12C = tested on: SN12C
MDA-MB-435 = tested on: MDA-MB-435
SNB-75 = tested on: SNB-75
DU-145 = tested on: DU-145
OVCAR-4 = tested on: OVCAR-4
COLO 205 = tested on: COLO 205
SK-OV-3 = tested on: SK-OV-3
LOX IMVI = tested on: LOX IMVI

Measured: GI50

COc1ccc(/N=N/C(=N\c2ccc(F)cc2)c2ccc(N(CCC#N)CCC#N)cc2)cc1
inactive: SW-620 41.6 µM | PC-3 24.1 µM | Hs-578T 27.4 µM | SK-MEL-5 12.4 µM | U-251 13.9 µM | M14 28.6 µM | K562 27.6 µM | SF-539 > 100 µM | UACC-257 19 µM | NCI/ADR-RES > 100 µM | NCI-H460 20.2 µM | TK-10 46.5 µM | SN12C 31.8 µM | MDA-MB-435 39.2 µM | SNB-75 24 µM | DU-145 33 µM | OVCAR-4 40.9 µM | COLO 205 39.2 µM | SK-OV-3 58.5 µM

COc1cc(OC)cc(-n2c(N)c(C#N)c3ccc([N+](=O)[O-])cc3c2=O)c1
inactive: SW-620 > 100 µM | PC-3 41.3 µM | Hs-578T 24.2 µM | SK-MEL-5 30.3 µM | U-251 22.9 µM | K562 22.6 µM | UACC-257 35 µM | NCI/ADR-RES 41.8 µM | NCI-H460 30.8 µM | TK-10 34.2 µM | SN12C 20.4 µM | MDA-MB-435 63.2 µM | SNB-75 19.7 µM | DU-145 20.8 µM | OVCAR-4 16.6 µM | COLO 205 > 100 µM | LOX IMVI > 100 µM

COc1cc(C(=O)Oc2ccc3c(c2)OCO3)cc(OC)c1OC
inactive: SW-620 > 100 µM | PC-3 > 100 µM | Hs-578T > 100 µM | SK-MEL-5 > 100 µM | U-251 > 100 µM | M14 > 100 µM | SF-539 > 100 µM | UACC-257 > 100 µM | NCI/ADR-RES > 100 µM | NCI-H460 > 100 µM | TK-10 > 100 µM | SN12C > 100 µM | MDA-MB-435 > 100 µM | SNB-75 > 100 µM | DU-145 > 100 µM | OVCAR-4 > 100 µM | COLO 205 > 100 µM | SK-OV-3 > 100 µM | LOX IMVI > 100 µM

NC(=O)c1cc2ccc(O)cc2o/c1=N/c1ccccc1
inactive: SW-620 26.2 µM | PC-3 37.7 µM | Hs-578T 64.3 µM | SK-MEL-5 18.4 µM | U-251 34.7 µM | M14 29.5 µM | K562 34.5 µM | UACC-257 39.3 µM | NCI/ADR-RES 23.8 µM | NCI-H460 25.9 µM | TK-10 27.1 µM | SN12C 22.3 µM | MDA-MB-435 23.3 µM | SNB-75 13.5 µM | DU-145 43.2 µM | OVCAR-4 42.3 µM | COLO 205 18.5 µM | SK-OV-3 34.5 µM | LOX IMVI 24 µM

CC(C)SC(=S)Sc1c(Cl)c(Cl)nc(Cl)c1Cl
inactive: SW-620 2.88 µM | PC-3 4.93 µM | Hs-578T 18.6 µM | SK-MEL-5 14.8 µM | U-251 3.98 µM | M14 12.4 µM | K562 2.97 µM | SF-539 10.9 µM | UACC-257 3.52 µM | NCI/ADR-RES 20.3 µM | NCI-H460 17.1 µM | TK-10 5.97 µM | SN12C 13 µM | MDA-MB-435 7.38 µM | DU-145 3.94 µM | OVCAR-4 13.6 µM | COLO 205 8.55 µM | SK-OV-3 17.8 µM | LOX IMVI 2.39 µM

COc1ccc(C(CC2(c3ccc(OC)cc3)SCCCS2)NC(C)=O)cc1 (stereo unspecified)
inactive: SW-620 47.8 µM | PC-3 23.8 µM | Hs-578T 86.7 µM | SK-MEL-5 18.4 µM | U-251 38.8 µM | M14 94 µM | K562 35.4 µM | SF-539 > 100 µM | UACC-257 26.2 µM | NCI/ADR-RES 21.2 µM | NCI-H460 40.7 µM | TK-10 39.8 µM | SN12C 29.6 µM | MDA-MB-435 40.7 µM | SNB-75 32.4 µM | DU-145 44.6 µM | COLO 205 25.1 µM | SK-OV-3 40.8 µM | LOX IMVI 85.5 µM

COc1ccc(C2=C(N)c3ccccc3C2=O)cc1
inactive: SW-620 > 100 µM | PC-3 > 100 µM | Hs-578T 27.5 µM | SK-MEL-5 > 100 µM | U-251 33.9 µM | M14 > 100 µM | SF-539 40.9 µM | UACC-257 > 100 µM | NCI/ADR-RES 42.4 µM | NCI-H460 > 100 µM | TK-10 45.1 µM | SN12C > 100 µM | MDA-MB-435 > 100 µM | SNB-75 27.7 µM | DU-145 > 100 µM | OVCAR-4 96.4 µM | COLO 205 > 100 µM | SK-OV-3 43 µM | LOX IMVI > 100 µM
